Source: US8883754B2, “Method for inhibiting angiogenesis” (Ewha University—Industry Collaboration Foundation, priority 2009, dated 2014)
Like-named read-outs stand apart in the source and are kept apart here.

Columns and labels:
VEGFR-2 RTK = molecular target: T1, VEGFR-2 RTK (Homo sapiens, UniProt P35968); assay: VEGFR-2 in vitro kinase assay on immunoprecipitates; format: cell-based
T1 construct: The VEGFR-2 was immunoprecipitated from Prx II siRNA-transfected or H2O2 (100 μM)-pretreated HAECs; endogenous in cells; host or cells: HAECs (human aortic endothelial cells)
T1 sequence (P35968 20-1356): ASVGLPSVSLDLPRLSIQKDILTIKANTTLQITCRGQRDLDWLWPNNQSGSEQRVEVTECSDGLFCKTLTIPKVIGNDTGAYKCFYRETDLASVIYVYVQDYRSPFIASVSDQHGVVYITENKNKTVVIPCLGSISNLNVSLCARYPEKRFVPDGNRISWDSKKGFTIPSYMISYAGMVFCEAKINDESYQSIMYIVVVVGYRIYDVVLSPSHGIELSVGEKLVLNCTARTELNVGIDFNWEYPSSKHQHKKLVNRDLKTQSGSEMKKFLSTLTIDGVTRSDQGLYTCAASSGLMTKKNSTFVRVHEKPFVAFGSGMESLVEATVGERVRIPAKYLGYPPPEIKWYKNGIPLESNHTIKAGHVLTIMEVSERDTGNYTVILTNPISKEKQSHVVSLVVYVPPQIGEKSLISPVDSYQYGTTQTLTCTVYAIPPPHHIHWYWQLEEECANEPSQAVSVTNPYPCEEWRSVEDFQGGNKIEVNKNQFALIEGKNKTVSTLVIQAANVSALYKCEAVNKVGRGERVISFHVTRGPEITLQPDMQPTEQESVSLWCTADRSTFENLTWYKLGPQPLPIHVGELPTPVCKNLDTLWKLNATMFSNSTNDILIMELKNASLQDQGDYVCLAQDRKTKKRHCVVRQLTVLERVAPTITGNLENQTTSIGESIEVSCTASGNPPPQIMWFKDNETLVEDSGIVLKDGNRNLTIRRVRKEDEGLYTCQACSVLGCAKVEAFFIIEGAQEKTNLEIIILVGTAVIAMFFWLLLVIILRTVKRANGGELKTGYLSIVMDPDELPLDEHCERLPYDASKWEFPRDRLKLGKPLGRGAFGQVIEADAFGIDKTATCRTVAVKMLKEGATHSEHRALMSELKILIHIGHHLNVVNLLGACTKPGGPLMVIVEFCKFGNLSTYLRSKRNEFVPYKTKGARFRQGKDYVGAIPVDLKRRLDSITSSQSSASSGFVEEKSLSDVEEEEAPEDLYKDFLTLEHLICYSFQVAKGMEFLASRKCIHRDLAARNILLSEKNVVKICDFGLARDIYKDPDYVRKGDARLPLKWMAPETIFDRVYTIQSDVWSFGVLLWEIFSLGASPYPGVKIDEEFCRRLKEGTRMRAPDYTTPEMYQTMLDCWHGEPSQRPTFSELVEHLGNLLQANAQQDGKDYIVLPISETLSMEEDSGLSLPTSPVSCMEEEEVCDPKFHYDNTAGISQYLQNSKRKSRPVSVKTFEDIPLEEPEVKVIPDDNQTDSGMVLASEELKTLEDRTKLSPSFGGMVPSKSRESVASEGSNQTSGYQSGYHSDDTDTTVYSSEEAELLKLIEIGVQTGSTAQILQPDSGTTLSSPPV
Experimental: At the appropriate time, the culture media were aspirated and cells were lysed in extraction buffer (TEB) containing 20 mM Hepes (pH 7.0), 1% Triton X-100, 150 mM NaCl, 10% glycerol, 1 mM EDTA, 2 mM EGTA, 1 mM DTT, 5 mM Na3VO4, 5 mM NaF, 1 mM AEBSF, aprotinin (5 μg/mL), and leupeptin (5 μg/mL). After brief centrifugation, the protein content of samples was quantified using the Bradford reagent (Bio-Rad). For immunoprecipitation, the resulting supernatants (120 μg proteins) were pre-cleaned with 10 μL of protein-A/G Sepharose 4 Fast Flow beads (Amersham Biosciences) for 1 hr, incubated overnight with 2 μg of the indicated antibodies, and further incubated at 4° C. for 3 hrs with 20 μL of protein-A/G Sepharose beads. Immunocomplexes were washed three times with 1 mL of TEB and then subjected to either in vitro kinase assay or immunoblotting.
The in vitro kinase assay was done as previously described in Choi, M. H. et al., (Nature 2005 435 (7040), 347-353). Briefly, the immunocomplexes precipitated with rabbit anti-flk-1(sc-504) antibody were incubated with 30 μL of kinase buffer (20 mM HEPES pH 7.5, 20 mM MgCl2, 20 mM β-glycerophosphate, and 200 μM Na3VO4) containing […] of γ-^32[P]-ATP and 0.5 μg GST-PLCγ1 at 30° C. for 10 minutes. The reaction was stopped by the addition of a SDS sample buffer. The samples were then boiled and separated on SDS denaturing gel. […]

[1] = system: intracellular ROS (H2O2) level in HAECs; assay: Detection and measurement of reactive oxygen species (CM-H2DCFDA, DCF fluorescence); format: cell-based, human; conditions: for level of ROS/H2O2 elevated by the Prx II knockdown: HAECs with Prx II knockdown
Experimental: HAECs were rinsed with Endothelial Basal Medium without phenol red (EBM, Lonza) and immediately incubated with 5 μM 5,6-chloromethyl-2′,7′-dichlorodihydrofluorescein diacetate (CM-H2DCFDA) (Molecular Probe) at 37° C. for 5 minutes. After briefly washing the cell with EBM, the fluorescence images were taken by fluorescence microscope (Axiovert 200 Basic standard, Zeiss, Germany). The relative DCF fluorescence was calculated by averaging the levels of fluorescence from 50-80 cells after subtracting the background fluorescence.

VEGF-VEGFR-2 signaling = conditions: for VEGFR-2 activation in response to VEGF in Prx II knockdown cells: HAECs with Prx II knockdown
Text: Sequences of the four siRNA duplexes for human Prx II were 5′-[…]-3′ (#1, SEQ ID NO. 1), 5′-[…]-3′ (#2, SEQ ID NO. 2), 5′-[…]-3′ (#3, SEQ ID NO. 3) and 5′-[…]-3′ (#4, SEQ ID NO. 4). The Prx II siRNA duplex #1 was mainly used for the study. Sequences of the four siRNA duplexes for human Prx I were 5′-[…]-3′ (#1, SEQ ID NO. 5), 5′-[…]-3′ (#2, SEQ ID NO. 6), 5′-[…]-3′ (#3, SEQ ID NO. 7) and 5′-[…]-3′ (#4, SEQ ID NO. 8); those for human GPxl, 5′-[…]-3′ (#1, SEQ ID NO. 9), 5′-[…]-3′ (#2, SEQ ID NO. 10), 5′-[…]-3′ (#3, SEQ ID NO. 11) and 5′-[…]-3′ (#4, SEQ ID NO. 12). A Prx III-specific siRNA was previously described in Chang, T. S. et al., (J Biol Chem 2004 279 (40), 41975-41984). The firefly luciferase siRNA were purchased or synthesized from Dharmacon. SiRNA duplexes for human VEGFR-1 (Cat No. sc-29319), VEGFR-2 (Cat No. sc-29318), and Prx IV (Cat. No. sc-40835) was purchased from Santa Cruz Biotechnology. The sequence of siRNA specific to human NOX4 was 5′-[…]-3′ (SEQ ID NO. 13). Human caveolin-1 siRNA, 5′-[…]-3′ (SEQ ID NO. 14) was purchased from Qiagen. Unless otherwise stated, the endothelial cells (ECs) were transfected with the siRNA duplexes for 24 hrs using lipofectamine RNAi MAXTM (Invitrogen). Then, the cells were serum-starved for an additional 18 hrs in media containing 0.5% fetal bovine serum before VEGF stimulation.
(§1) For immunoblotting, cell lysates or the immunoprecipitates were mixed with 5× Laemmli sample buffer and boiled for 5 minutes. The samples were separated on a SDS denaturing gel and then electrophoretically transferred onto nitrocellulose membranes, which were subsequently subjected to immunoblotting. In order to block non-specific binding, the membrane was reacted with TBS (Tris-buffered saline; TBST) containing 0.5% Tween-20 and 5% nonfat milk at room temperature for 1 hour. The above described blots were reacted with each primary antibody in TBST containing 5% nonfat milk or BSA at 4° C. for overnight. After washing with TBST, the blots were reacted with horseradish peroxidase-conjugated goat anti-mouse immunoglobulin (IgG; 1:5000 dilution) or goat anti-rabbit IgG (1:3000 dilution) at room temperature for 45 minutes. Protein bands were detected using an Amersham ECLTM detection system (GE healthcare). When necessary, the membranes were stripped by shaking them for 60 minutes at 37° C. in 67 mM Tris (pH 6.7), 2% SDS, 100 mM 2-mercaptoethanol and reprobed. with the appropriate pan antibody.

HAECs = assay: VEGF-induced tube formation on Matrigel; format: cell-based, human; conditions: HAECs expressing mVEGFR-2 WT or C1206S; 1 μM pretreated for 1 hr before VEGF
Experimental: For tube formation, the HAECs (50,000 cells/well) were placed on 12-well culture dishes coated with growth factor-reduced Matrigel matrix (BD Bioscience, cat #354230). Cells were cultured for 18 hrs in the EBM-2 media containing 0.5% serum medium in the presence or absence of VEGF-A (25 ng/mL). Thereafter, the cell images were taken from five random visual fields per sample and the total length of the tubes were quantitatively analyzed using an Image-Pro Plus version 6.2 (Media Cybernetics).

2-cys Prxs = conditions: HAECs
Experimental: as §1

Molecule: O[C@H](CS)[C@H](O)CS (racemic) [DTT, dithiothreitol]
- RTK activation abolished by Prx II knockdown or H2O2 treatment (VEGFR-2 RTK; VEGFR-2 immunoprecipitated from HAECs, incubated 10 minutes): fully restored

Molecule: 5′-GUCAACAUCCAGCUGUACC-3′ [NOX4 siRNA]
- level of ROS/H2O2 elevated by the Prx II knockdown [1]: background level
- VEGFR-2 activation in response to VEGF in Prx II knockdown cells (VEGF-VEGFR-2 signaling): completely rescued

Molecule: 5′-GCAUCAACUUGCAGAAAGAUU-3′ [caveolin-1 siRNA]
- VEGFR-2 activation in response to VEGF in Prx II knockdown cells (VEGF-VEGFR-2 signaling): no longer affected by the Prx II knockdown

Molecule: Cc1cc(C)c(/C=C2\C(=O)Nc3ccccc32)[nH]1 [SU5416]
- tube formation by VEGFR-2 WT and C1206S mutant (HAECs): completely blocked

Molecule: OO [H2O2, hydrogen peroxide]
- hyperoxidation of 2-cys Prxs (2-cys Prxs; micromolar concentrations up to 100 μM, 10 minutes): did not induce hyperoxidation
- hyperoxidation of 2-cys Prxs (2-cys Prxs; millimolar concentration (1 mM)): only slightly induced the hyperoxidation of Prx I and Prx III, but not Prx II
- VEGF-dependent induction of VEGFR-2 RTK activation after pretreatment (VEGFR-2 RTK; HAECs pretreated at various concentrations): suppressed VEGF-dependent induction of VEGFR-2 RTK activation in a dose-dependent manner

Molecule: VEGF
- increase of ROS on VEGF treatment ([1]; control HAECs): two-fold

Molecule: methyl-β-cyclodextrin [MβCD]
- VEGFR-2 activation in response to VEGF in Prx II knockdown cells (VEGF-VEGFR-2 signaling): restored VEGFR-2 activation

B1: catalase: polyethylene glycol (PEG)-conjugated catalase, an enzyme that reduces H2O2 to H2O (protein, UniProt P00432 2-527, looked up)
Catalase: ADNRDPASDQMKHWKEQRAAQKPDVLTTGGGNPVGDKLNSLTVGPRGPLLVQDVVFTDEMAHFDRERIPERVVHAKGAGAFGYFEVTHDITRYSKAKVFEHIGKRTPIAVRFSTVAGESGSADTVRDPRGFAVKFYTEDGNWDLVGNNTPIFFIRDALLFPSFIHSQKRNPQTHLKDPDMVWDFWSLRPESLHQVSFLFSDRGIPDGHRHMNGYGSHTFKLVNANGEAVYCKFHYKTDQGIKNLSVEDAARLAHEDPDYGLRDLFNAIATGNYPSWTLYIQVMTFSEAEIFPFNPFDLTKVWPHGDYPLIPVGKLVLNRNPVNYFAEVEQLAFDPSNMPPGIEPSPDKMLQGRLFAYPDTHRHRLGPNYLQIPVNCPYRARVANYQRDGPMCMMDNQGGAPNYYPNSFSAPEHQPSALEHRTHFSGDVQRFNSANDDNVTQVRTFYLKVLNEEQRKRLCENIAGHLKDAQLFIQKKAVKNFSDVHPEYGSRIQALLDKYNEEKPKNAVHTYVQHGSHLSAREKANL
modifications: PEG
notes: polyethylene glycol (PEG)-conjugated catalase, an enzyme that reduces H2O2 to H2O
- level of ROS/H2O2 elevated by the Prx II knockdown [1]: background level
- VEGF-dependent tyrosine phosphorylation (VEGF-VEGFR-2 signaling; HAECs pretreated with PEG-catalase, increasing doses, 18 hours): gradually decreased
